Measured values: publication PMC9794698, “Structure optimization of new tumor-selective Passerini α-acyloxy carboxamides as Caspase-3/7 activators” (Scientific Reports, 2022)
“And” between values parts separate entries of the source, which are not always exact repeats. Identical values can stand only once. Like-named read-outs stand apart in the source and are kept apart here.

How the values were obtained:
caspase-3/7 [1] = assay: Caspase-3/7 activation assay (ApoONE kit) in HepG-2 cells; format: cell-based, human; settings: HepG-2 cells treated with IC50 doses; relative to untreated cells; mean ± SEM
Method: (§1) ApoONE® Caspase-3/7 kit was used following the manufacturer’s instructions (Supplementary data).
(§2) 5.2. Caspase-3/7 activation assay
(§3) The caspase 3/7 activation was assessed, as a key indicator in caspase-dependent apoptosis, using ApoONE® Caspase-3/7 kit following the manufacturer’s instructions. This kit used a nonfluorescence substrate […]
(§4) the generation of the fluorescence signals of Rhodamine 110. Thesesignal were measured at 490 nm excitation and 520 nm emission using the fluorescence microplate reader (BMG LabTech, Germany). […]

HepG-2 cells [2] = assay: MTT cytotoxicity assay, liver cancer cells; format: cell-based, human; settings: for IC50: Homo sapiens, HepG2; for Morphological alterations of treated HepG-2 cells: microscopic examination after 72 h, compared to untreated and 5-FU-treated cells; for HepG-2 SI: ratio of IC50 against normal cells (Wi-38) to IC50 against HepG-2
Method: (§5) Wi-38, Caco-2 and HepG-2 cells were cultured in DMEM medium-contained 10% FBS, seeded as 5 × 10^3 cells per well in 96-well cell culture plate and incubated at 37 °C in 5% CO2 incubator. After 24 h, serial concentrations of the test compounds were incubated with cells for 72 h. Cell viability was assayed via MTT protocol[27] (Supplementary data). IC50 values of the synthesized compounds were measured via the Graphpad Instat software. Morphological changes were examined using phase contrast inverted microscope with a digital camera (Olympus, Japan). […]
(§6) Normal human lung fibroblast Wi-38 cell line was used to detect cytotoxicity of the studied compounds.
(§7) Wi-38 cell line was cultured in DMEM medium-contained 10% fetal bovine serum (FBS), seeded as 5x10^3 cells per well in 96-well cell culture plate and incubated at 37 °C in 5% CO2 incubator. After 24 h for cell attachment, serial concentrations of the synthetic compounds and standard chemotherapy (5-fluorouracil) were incubated with Wi-38 cells for 72 h. Cell viability was assayed by MTT method Twenty microliters of 5 mg/ml MTT (Sigma, USA) was added to each well and the plate was incubated at 37 °C for 3 h. Then MTT solution was removed, 100 µl DMSO was added, and the absorbance of each well was measured with a microplate reader (BMG LabTech, Germany) at 570 nm. The dose (EC50 and EC100) values (at 50% and100% cell viability, respectively) of the tested compounds was estimated by the Graphpad Instat software.
(§8) The anticancer effect of the above-mentioned compounds was assayed using human colon cancer cell line (Caco-2) and liver cancer cell line (HepG-2) that were cultured in DMEM (Lonza, USA) supplemented with 10%
(§9) FBS. All cancer cells (5x10^3 cells/well) were seeded in sterile 96-well plates. After 24h, serial concentrations of the tested compounds and 5-fluorouracil (Fu) were incubated with two cancer cell lines for 72 h at 37 °C in 5% CO2 incubator. MTT method was done as described above. The half maximal inhibitory concentration (IC50) values were calculated using the Graphpad Instat software. Furthermore, cellular morphological changes before […]
(§10) contrast inverted microscope with a digital camera (Olympus, Japan).

Wi-38 cells [3] = assay: MTT cytotoxicity assay, normal human fibroblasts; format: cell-based; settings: 72 h, mean ± SEM; for MNTC: dose at 100% cell viability, read-out: Wi-38 EC100
Method: as §5, §6
as §7, with “software. […]” for “software.”

Caco-2 cells [4] = assay: MTT cytotoxicity assay, colorectal cancer cells; format: cell-based, human; settings: for SI against the screened cell lines: Caco-2 and HepG-2 cells versus Wi-38; for IC50: Homo sapiens; for Caco-2 LE: LE = 1.37 (pIC50)/NHA; for Caco-2 LLE: LLE = pIC50–cLog P; for Morphological alterations of treated Caco-2 cells: microscopic examination after 72 h, compared to untreated and 5-FU-treated cells; for Caco-2 SI: ratio of IC50 against normal cells (Wi-38) to IC50 against Caco-2
Method: as §5, §6, §7, §8, §9, §10

Caco-2 cells [5] = assay: Flow cytometric analysis of apoptosis (annexin V/PI); format: cell-based, human; settings: IC50 doses, 72 h, annexin-stained, mean ± SEM
Method: Reverse: 5′-[…]-3′
5.4. Flow cytometric analysis of apoptosis […]
human colon cancer cell line (Caco-2) for 72 h, at their minimum IC50 doses. After trypsinization, the untreated and treated cancer cells were stained with fluorescein isothiocyanate (FITC)-annexin V/ propidium iodide (PI) for 15 min. After washing with PBS, the annexin-stained apoptotic population was quantified using flow cytometry at FITC signal detector (FL1) against the phycoerythrin emission signal detector (FL2).

caspase-3/7 [6] = assay: Caspase-3/7 activation assay (ApoONE kit) in Caco-2 cells; format: cell-based, human; settings: Caco-2 cells treated with IC50 doses; relative to untreated cells; mean ± SEM
Method: as §1, §2, §3, §4

Bcl2 = assay: RT-qPCR of Bcl2 expression in Caco-2 cells; format: cell-based, human; settings: 0.06 µM for 72 h, mean ± SEM
Method: (§11) RNAs of untreated and treated cancer cells were extracted using Gene JET RNA purification kit (Thermo Scientific, USA). Then cDNAs were synthesized using cDNA Synthesis Kit (Thermo Scientific, USA). Real time PCR was performed using SYBR green master mix and specific primers (Forward/Reverse) as detailed in the supplementary data. […]
5.3. Real-time Quantitative PCR Analysis of Bcl2 […]
as §11, with “µM, for 72 h in 5% CO2 incubator. RNAs” for “RNAs”, “primers” for “primers (Forward/Reverse) as detailed in the supplementary data.”
The thermal cycling parameters were pre-denaturation, followed by 40 amplification cycles of 1 min at 95°C and 30 s at 60 °C and at 72°C for 30 sec. GAPDH mRNA was quantified to adjust the amount of mRNA in each sample. The 2−ΔΔCT equation was used to estimate change in gene expressions before and after treatment of cancer cells.
Table 1 primer sequences of the used genes

HepG-2 cells [7] = test system: HepG-2 cells; parameters: method as in PMID 30826510; settings: previously studied nitro lead, cited from earlier work
Wi-38 cells [8] = test system: Wi-38 cells; parameters: method as in PMID 30826510; settings: MTT; previously studied nitro lead; cited from earlier work
[9] = MTT, 72 h, mean ± SEM, read-out: HepG-2 IC50
[10] = read-out: HepG-2 pIC50 (converted)
[11] = Caco-2, -log (IC50), molar, read-out: Caco-2 IC50 (converted)
[12] = Caco-2, MTT, 72 h, mean ± SEM, read-out: Caco-2 IC50 (converted)
[13] = Caco-2 and HepG-2 cells, MTT, read-out: IC50 against the screened cell lines

SMILES | Relative fold increment in caspase 3/7 activity, HepG-2 (caspase-3/7 [1]) | IC50 (HepG-2 cells [2]; [9]) | IC50 (HepG-2 cells [2]; [10]) | Morphological alterations of treated HepG-2 cells (HepG-2 cells [2]) | HepG-2 SI (HepG-2 cells [2]) | MNTC (Wi-38 cells [3]) | IC50 (Wi-38 cells [3]) | SI against the screened cell lines (Caco-2 cells [4]) | IC50 (Caco-2 cells [4]; [11]) | IC50 (Caco-2 cells [4]; [12]) | IC50 (Caco-2 cells [4]; [13]) | Caco-2 LE (Caco-2 cells [4]) | Caco-2 LLE (Caco-2 cells [4]) | Morphological alterations of treated Caco-2 cells (Caco-2 cells [4]) | Caco-2 SI (Caco-2 cells [4]) | % Apoptosis (total apoptotic cell population) (Caco-2 cells [5]) | Relative fold increment in caspase 3/7 activity, Caco-2 (caspase-3/7 [6]) | Bcl2 gene relative fold change (Bcl2) | also measured
CCOC(=O)c1ccc(NC(=O)C2(OC(=O)Cc3c[nH]c4ccccc34)CCCCC2)cc1 [7a, Ethyl-4-(1-(2-(1H-indol-3-yl)acetoxy)cyclohexanecarboxamido)benzoate] | 2.938 ± 0.063 fold | 115 ± 16 nM | 115 nM | severe shrinkage and morphological alterations | 97.347 | 2980 ± 640 nM | 11.2 ± 3.75 µM | 97–243 | 88.1 nM | 88 ± 10 nM | 70 to 120 nM | 0.292 | 4.025 | severe shrinkage and morphological alterations | 127.215 | 50.9% and 50.905 ± 5.975% | 3.086 ± 0.038 fold | 0.471 ± 0.051 fold | 
CCOC(=O)c1ccc(NC(=O)C2(OC(=O)[C@H](Cc3ccccc3)NC(=O)Oc3ccccc3)CCCCC2)cc1 [7j, Ethyl-4-(1-((2-((phenoxycarbonyl)amino)-3-phenylpropanoyl)oxy)cyclohexanecarboxamido) benzoate] | 2.960 ± 0.065 fold | 87 ± 7 nM | 87.1 nM | severe shrinkage and morphological alterations | 192.689 | 1770 ± 694 nM | 16.8 ± 0.637 µM | 97–243 | 69 nM | 69 ± 6 nM | 70 to 120 nM | 0.239 | 3.461 | severe shrinkage and morphological alterations | 242.956 | 52.6% and 52.650 ± 5.310% | 3.586 ± 0.098 fold | 0.127 ± 0.009 fold | 
O=C(Cc1ccccc1)OC1(C(=O)Nc2ccc([N+](=O)[O-])cc2)CCCCC1 [V] |  |  |  |  |  |  |  |  |  |  |  |  |  |  |  |  |  |  | IC50 (HepG-2 cells [7]; MTT): 14 nM; SI (HepG-2) (HepG-2 cells [7]; Wi-38 vs HepG-2): 3.091; IC50 (Wi-38 cells [8]): 44 nM
